{"source": "patent US8952024B2", "about": "“Herbicidal pyrimidone derivatives” (E I du Pont de Nemours and Company, priority 2009, dated 2015)", "format_in_all_cases": "in vivo", "key": {"[1]": {"tested_on": "winter barley (Hordeum vulgare)", "assay": "Test B postemergence plant response", "details": "for Barley plant response rating (0 to 100 scale): 62 g ai/ha, 0 is no effect, 13 to 15 days", "in_short": "(§1)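 Plants grown in peat/vermiculite medium were sprayed postemergence at 2–18 cm height (1- to 4-leaf stage). After 13–15 days in the greenhouse, response was rated visually against untreated controls on a 0–100 scale (0 no effect, 100 complete control).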"}, "[2]": {"tested_on": "canarygrass (Phalaris minor)", "assay": "Test B postemergence plant response", "details": "for Canarygrass plant response rating (0 to 100 scale): 62 g ai/ha, 0 is no effect, 13 to 15 days", "in_short": "as §1"}, "[3]": {"tested_on": "chickweed (Stellaria media)", "assay": "Test B postemergence plant response", "details": "for Chickweed plant response rating (0 to 100 scale): 62 g ai/ha, 0 is no effect, 13 to 15 days", "in_short": "as §1"}, "[4]": {"tested_on": "windgrass (Apera spica-venti)", "assay": "Test B postemergence plant response", "details": "for Windgrass plant response rating (0 to 100 scale): 62 g ai/ha, 0 is no effect, 13 to 15 days", "in_short": "as §1"}, "[5]": {"tested_on": "giant foxtail (Setaria faberii)", "assay": "Test A pre-/postemergence plant response", "in_short": "(§2)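 Visually rated 0–100 injury (100 = complete control) versus untreated plants, ~10 days in greenhouse. Application pre- (soil spray, loam/sand) and postemergence (2–10 cm, 1–2 leaf stage), same timepoint.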"}, "[6]": {"tested_on": "morningglory (Ipomoea spp.)", "assay": "Test A pre-/postemergence plant response", "in_short": "as §2"}, "[7]": {"tested_on": "large crabgrass (Digitaria sanguinalis)", "assay": "Test A pre-/postemergence plant response", "in_short": "as §2"}, "[8]": {"tested_on": "wheat (Triticum aestivum)", "assay": "Test A pre-/postemergence plant response", "in_short": "as §2"}, "[9]": {"tested_on": "pigweed (Amaranthus retroflexus)", "assay": "Test A pre-/postemergence plant response", "in_short": "as §2"}, "[10]": {"tested_on": "corn (Zea mays)", "assay": "Test A pre-/postemergence plant response", "in_short": "as §2"}, "[11]": {"tested_on": "velvetleaf (Abutilon theophrasti)", "assay": "Test A pre-/postemergence plant response", "in_short": "as §2"}, "[12]": {"tested_on": "barnyardgrass (Echinochloa crus-galli)", "assay": "Test A pre-/postemergence plant response", "in_short": "as §2"}, "[13]": {"details": "31 g ai/ha, postemergence, scale 0 to 100, 0 is no effect, 100 is complete control"}, "[14]": {"details": "postemergence, 100 is complete control"}, "[15]": {"details": "Postemergence, 125 g ai/ha, visual rating after 13 to 15 days, scale 0 (no effect) to 100 (complete control)"}, "[16]": {"details": "Postemergence, 250 g ai/ha, scale 0 to 100 (0 no effect, 100 complete control)"}, "[17]": {"details": "Postemergence, 125 g ai/ha, 0 to 100 scale where 0 is no effect and 100 is complete control"}, "[18]": {"details": "Postemergence, 500 g ai/ha, 0 to 100 scale, 0 = no effect, 100 = complete control, approx. ten days"}, "[19]": {"details": "Preemergence, 125 g ai/ha, 0 to 100 scale, 0 = no effect, 100 = complete control"}, "[20]": {"details": "Preemergence, 500 g ai/ha, visual injury, 0 to 100 scale (0 no effect, 100 complete control), approx. ten days"}}, "data": [{"smiles": "CCCn1c(-c2cccs2)ncc(C(=O)C2=C(O)CCCC2=O)c1=O", "note": "[Compound 77]", "values": [{"measurement": "Plant response rating, Barley", "setting": "[1]; [13]", "value": 0}, {"measurement": "Barley plant response rating (0 to 100 scale)", "setting": "[1]; [14]", "value": 0}, {"measurement": "Plant response rating, Barley", "setting": "[1]; [15]", "value": 0}, {"measurement": "Plant response rating, Barley", "setting": "[1]; [16]", "value": 0}, {"measurement": "Plant response rating, Canarygrass", "setting": "[2]; [13]", "value": 0}, {"measurement": "Canarygrass plant response rating (0 to 100 scale)", "setting": "[2]; [14]", "value": 0}, {"measurement": "Plant response rating, Canarygrass", "setting": "[2]; [15]", "value": 0}, {"measurement": "Plant response rating, Canarygrass", "setting": "[2]; [16]", "value": 0}, {"measurement": "Plant response rating, Chickweed", "setting": "[3]; [13]", "value": 80}, {"measurement": "Chickweed plant response rating (0 to 100 scale)", "setting": "[3]; [14]", "value": 85}, {"measurement": "Plant response rating, Chickweed", "setting": "[3]; [15]", "value": 95}, {"measurement": "Plant response rating, Chickweed", "setting": "[3]; [16]", "value": 98}, {"measurement": "Plant response rating, Windgrass", "setting": "[4]; [13]", "value": 10}, {"measurement": "Windgrass plant response rating (0 to 100 scale)", "setting": "[4]; [14]", "value": 10}, {"measurement": "Plant response rating, Windgrass", "setting": "[4]; [15]", "value": 20}, {"measurement": "Plant response rating, Windgrass", "setting": "[4]; [16]", "value": 25}, {"measurement": "Plant response rating, Foxtail, Giant", "setting": "[5]; [17]", "value": 50}, {"measurement": "Plant response rating, Foxtail, Giant", "setting": "[5]; [18]", "value": 70}, {"measurement": "Plant response rating, Foxtail, Giant", "setting": "[5]; [19]", "value": 0}, {"measurement": "Plant response rating, Foxtail, Giant", "setting": "[5]; [20]", "value": 20}, {"measurement": "Plant response rating, Morningglory", "setting": "[6]; [17]", "value": 90}, {"measurement": "Plant response rating, Morningglory", "setting": "[6]; [18]", "value": 100}, {"measurement": "Plant response rating, Morningglory", "setting": "[6]; [20]", "value": 70}, {"measurement": "Plant response rating, Crabgrass, Large", "setting": "[7]; [17]", "value": 60}, {"measurement": "Plant response rating, Crabgrass, Large", "setting": "[7]; [18]", "value": 80}, {"measurement": "Plant response rating, Crabgrass, Large", "setting": "[7]; [19]", "value": 50}, {"measurement": "Plant response rating, Crabgrass, Large", "setting": "[7]; [20]", "value": 90}, {"measurement": "Plant response rating, Wheat", "setting": "[8]; [17]", "value": 0}, {"measurement": "Plant response rating, Wheat", "setting": "[8]; [18]", "value": 0}, {"measurement": "Plant response rating, Wheat", "setting": "[8]; [19]", "value": 0}, {"measurement": "Plant response rating, Wheat", "setting": "[8]; [20]", "value": 0}, {"measurement": "Plant response rating, Pigweed", "setting": "[9]; [17]", "value": 100}, {"measurement": "Plant response rating, Pigweed", "setting": "[9]; [18]", "value": 100}, {"measurement": "Plant response rating, Pigweed", "setting": "[9]; [19]", "value": 80}, {"measurement": "Plant response rating, Pigweed", "setting": "[9]; [20]", "value": 90}, {"measurement": "Plant response rating, Corn", "setting": "[10]; [17]", "value": 0}, {"measurement": "Plant response rating, Corn", "setting": "[10]; [18]", "value": 20}, {"measurement": "Plant response rating, Corn", "setting": "[10]; [19]", "value": 0}, {"measurement": "Plant response rating, Corn", "setting": "[10]; [20]", "value": 0}, {"measurement": "Plant response rating, Velvetleaf", "setting": "[11]; [17]", "value": 100}, {"measurement": "Plant response rating, Velvetleaf", "setting": "[11]; [18]", "value": 100}, {"measurement": "Plant response rating, Velvetleaf", "setting": "[11]; [19]", "value": 70}, {"measurement": "Plant response rating, Velvetleaf", "setting": "[11]; [20]", "value": 100}, {"measurement": "Plant response rating, Barnyardgrass", "setting": "[12]; [17]", "value": 80}, {"measurement": "Plant response rating, Barnyardgrass", "setting": "[12]; [18]", "value": 90}, {"measurement": "Plant response rating, Barnyardgrass", "setting": "[12]; [19]", "value": 20}, {"measurement": "Plant response rating, Barnyardgrass", "setting": "[12]; [20]", "value": 50}]}, {"smiles": "Cc1ccc(-c2ncc(C(=O)C3=C(O)CCCC3=O)c(=O)n2-c2ccccc2)cc1", "note": "[Compound 80]", "values": [{"measurement": "Plant response rating, Barley", "setting": "[1]; [13]", "value": 15}, {"measurement": "Barley plant response rating (0 to 100 scale)", "setting": "[1]; [14]", "value": 30}, {"measurement": "Plant response rating, Barley", "setting": "[1]; [15]", "value": 30}, {"measurement": "Plant response rating, Barley", "setting": "[1]; [16]", "value": 75}, {"measurement": "Plant response rating, Canarygrass", "setting": "[2]; [13]", "value": 45}, {"measurement": "Canarygrass plant response rating (0 to 100 scale)", "setting": "[2]; [14]", "value": 50}, {"measurement": "Plant response rating, Canarygrass", "setting": "[2]; [15]", "value": 50}, {"measurement": "Plant response rating, Canarygrass", "setting": "[2]; [16]", "value": 70}, {"measurement": "Plant response rating, Chickweed", "setting": "[3]; [13]", "value": 90}, {"measurement": "Chickweed plant response rating (0 to 100 scale)", "setting": "[3]; [14]", "value": 98}, {"measurement": "Plant response rating, Chickweed", "setting": "[3]; [15]", "value": 100}, {"measurement": "Plant response rating, Chickweed", "setting": "[3]; [16]", "value": 100}, {"measurement": "Plant response rating, Windgrass", "setting": "[4]; [13]", "value": 50}, {"measurement": "Windgrass plant response rating (0 to 100 scale)", "setting": "[4]; [14]", "value": 60}, {"measurement": "Plant response rating, Windgrass", "setting": "[4]; [15]", "value": 70}, {"measurement": "Plant response rating, Windgrass", "setting": "[4]; [16]", "value": 80}, {"measurement": "Plant response rating, Foxtail, Giant", "setting": "[5]; [17]", "value": 70}, {"measurement": "Plant response rating, Foxtail, Giant", "setting": "[5]; [18]", "value": 90}, {"measurement": "Plant response rating, Foxtail, Giant", "setting": "[5]; [19]", "value": 10}, {"measurement": "Plant response rating, Foxtail, Giant", "setting": "[5]; [20]", "value": 60}, {"measurement": "Plant response rating, Morningglory", "setting": "[6]; [17]", "value": 100}, {"measurement": "Plant response rating, Morningglory", "setting": "[6]; [18]", "value": 100}, {"measurement": "Plant response rating, Morningglory", "setting": "[6]; [19]", "value": 0}, {"measurement": "Plant response rating, Morningglory", "setting": "[6]; [20]", "value": 30}, {"measurement": "Plant response rating, Crabgrass, Large", "setting": "[7]; [17]", "value": 70}, {"measurement": "Plant response rating, Crabgrass, Large", "setting": "[7]; [18]", "value": 90}, {"measurement": "Plant response rating, Crabgrass, Large", "setting": "[7]; [19]", "value": 50}, {"measurement": "Plant response rating, Crabgrass, Large", "setting": "[7]; [20]", "value": 90}, {"measurement": "Plant response rating, Wheat", "setting": "[8]; [17]", "value": 0}, {"measurement": "Plant response rating, Wheat", "setting": "[8]; [18]", "value": 0}, {"measurement": "Plant response rating, Wheat", "setting": "[8]; [19]", "value": 0}, {"measurement": "Plant response rating, Wheat", "setting": "[8]; [20]", "value": 0}, {"measurement": "Plant response rating, Pigweed", "setting": "[9]; [17]", "value": 100}, {"measurement": "Plant response rating, Pigweed", "setting": "[9]; [18]", "value": 100}, {"measurement": "Plant response rating, Pigweed", "setting": "[9]; [19]", "value": 60}, {"measurement": "Plant response rating, Pigweed", "setting": "[9]; [20]", "value": 90}, {"measurement": "Plant response rating, Corn", "setting": "[10]; [17]", "value": 0}, {"measurement": "Plant response rating, Corn", "setting": "[10]; [18]", "value": 50}, {"measurement": "Plant response rating, Corn", "setting": "[10]; [19]", "value": 0}, {"measurement": "Plant response rating, Corn", "setting": "[10]; [20]", "value": 0}, {"measurement": "Plant response rating, Velvetleaf", "setting": "[11]; [17]", "value": 100}, {"measurement": "Plant response rating, Velvetleaf", "setting": "[11]; [18]", "value": 100}, {"measurement": "Plant response rating, Velvetleaf", "setting": "[11]; [19]", "value": 50}, {"measurement": "Plant response rating, Velvetleaf", "setting": "[11]; [20]", "value": 100}, {"measurement": "Plant response rating, Barnyardgrass", "setting": "[12]; [17]", "value": 30}, {"measurement": "Plant response rating, Barnyardgrass", "setting": "[12]; [18]", "value": 80}, {"measurement": "Plant response rating, Barnyardgrass", "setting": "[12]; [19]", "value": 0}, {"measurement": "Plant response rating, Barnyardgrass", "setting": "[12]; [20]", "value": 10}]}]}
